# Experimental data published in patent US8039454B2, “Macrolide compounds with antibiotic and antineoplastic properties” (Weihe Pharmaceuticals Co. Ltd., priority 2006, dated 2011).
# How the values were obtained:
# Test in all cases: MIC by standard dilution method in Tryptic Soy Broth
# Assay type in all cases: cell-based
# Enterococcus faecalis = details: 35° C., 24 h incubation
# Method: (§1) To determine minimum inhibitory concentration (MIC) of the WBI-3001, the standard dilution method was used. The tests were conducted at 35° C. and the MICs were determined after 24 h incubation.
# Escherichia coli = details: 35° C., 24 h incubation
# Method: as §1
# Pseudomonas aeruginosa = details: 35° C., 24 h incubation
# Method: as §1
# [1] = tested on: S. aureus MSRA (clinical isolates of methicillin-resistant strain); details: Staphylococcus aureus, 24 h
# Method: as §1
# [2] = tested on: Staphylococcus epidermidis; details: 35° C., 24 h incubation
# Method: as §1
# Streptococcus pyogenes = details: 35° C., 24 h incubation
# Method: as §1
structure (smiles),measurement,setting,value
CC[C@H]1OC(=O)[C@H](C)[C@@H](O[C@H]2C[C@@](C)(OC)[C@@H](O)[C@H](C)O2)[C@H](C)[C@@H](O[C@@H]2O[C@H](C)C[C@H](N(C)C)[C@H]2O)[C@](C)(O)C[C@@H](C)C(=O)[C@H](C)[C@@H](O)[C@]1(C)O [Erythromycin],MIC,Enterococcus faecalis,> 32 µg/mL
same,MIC,Escherichia coli,1 µg/mL
same,MIC,Pseudomonas aeruginosa,> 32 µg/mL
same,MIC,[1],> 32 µg/mL
same,MIC,[2],0.25 µg/mL
same,MIC,Streptococcus pyogenes,0.03 µg/mL
